Experimental data from patent US9950048B2, “Immunogenic epitopes for immunotherapy” (immatics biotechnologies GmbH, priority 2007, dated 2018).
Ends that are not written are not given here.

Assays:
[1] = test system: CD8+ T cells of healthy HLA-A*02+ donors; experiment: In vitro priming of CD8+ T cells with pMHC/anti-CD28 coated beads (high density), tetramer analysis; format: cell-based, human; details: for Immunogenicity detected: at least one well with ≥1% specific tetramer+ among CD8+ T-cells and ≥10× median of negative controls; for Positive donors/donors tested / Positive donors/donors tested (%) / Positive wells/wells tested / Positive wells/wells tested (%): high density beads
Protocol: To perform in vitro stimulations by artificial antigen presenting cells (aAPC) loaded with peptide-MHC complex (pMHC) and anti-CD28 antibody, first PBMCs (peripheral blood mononuclear cells) were isolated from fresh HLA-A*02+ buffy coats by using standard density gradient separation medium (PAA, Cölbe, Germany). Buffy coats were either obtained from the Blood Bank Tübingen or from the Katharinenhospital Stuttgart. Isolated PBMCs were incubated overnight in T-cell medium (TCM) for human in vitro priming consisting of RPMI-Glutamax (Invitrogen, Karlsruhe, Germany) supplemented with 10% heat inactivated human AB serum (PAA, Cölbe, Germany), 100 U/ml Penicillin/100 μg/ml Streptomycin (Cambrex, Verviers, Belgium), 1 mM sodium pyruvate (CC Pro, Neustadt, Germany) and 20 μg/ml Gentamycin (Cambrex). CD8+ lymphocytes were isolated using the CD8+ MACS positive selection kit (Miltenyi, Bergisch Gladbach, Germany) according to the manufacturer's instructions. Obtained CD8+ T-cells were incubated until use in TCM supplemented with 2.5 ng/ml IL-7 (PromoCell, Heidelberg, Germany) and 10 U/ml IL-2 (Chiron, Munich, Gemany). Generation of pMHC/anti-CD28 coated beads, T-cell stimulations and readout was performed as described before (Walter, S, et al., 2003, J. Immunol., 171, 4974-4978) with minor modifications. Briefly, biotinylated recombinant HLA-A*0201 molecules lacking the transmembrane domain and being biotinylated at the carboxy terminus of the heavy chain were produced following a method described by (Altman, J D, et al., 1996, Science, 274, 94-96). The purified costimulatory mouse IgG2a anti human CD28 Ab 9.3 (Jung, G, Ledbetter, J A, and Muller-Eberhard, H J; 1987, Induction of cytotoxicity in resting human T lymphocytes bound to tumor cells by antibody heteroconjugates, Proc Natl Acad Sci USA, 84, 4611-4615) was chemically biotinylated using Sulfo-N-hydroxysuccinimidobiotin as recommended by the manufacturer (Perbio, Bonn, Germany).
800,000 beads/200 μl were coated in 96-well plates in the presence of 600 ng biotin anti-CD28 plus 200 ng relevant biotin-pMHC (high density beads) or 2 ng relevant plus 200 ng irrelevant (pMHC library) MHC (low density beads). Stimulations were initiated in 96-well plates by conincubating 1×10^6 CD8+ T cells with 2×10^5 washed coated beads in 200 μl TCM supplemented with 5 ng/ml IL-12 (PromoCell) for 3-4 days at 37° C. Half of the medium was then exchanged by fresh TCM supplemented with 80 U/ml IL-2 and incubation was continued for 3-4 days at 37° C. This stimulation cycle was performed for a total of three times. Finally, tetrameric analyses were performed with fluorescent MHC tetramers (produced as described by (Altman, J D, et al., 1996, Science, 274, 94-96)) plus antibody CD8-FITC clone SK1 (BD, Heidelberg, Germany) on a four-color FACSCalibur (BD). Peptide specific cells were calculated as percentage of total CD8+ T cells. Evaluation of tetrameric analysis was performed using the software FCS Express (De Novo Software). In vitro priming of specific tetramer+CD8+ lymphocytes was detected by appropriate gating and by comparison to negative control stimulations.
Peptides of the present invention were tested together with peptides of known in vivo immunogenicity for comparison. The CEA-005 peptide that was optimised for in vitro T-cell induction (Fong, L, et al., 2001, J. Immunol., 166, 4254-4259) served as control.
Results of in vitro immunogenicity experiments conducted by immatics are summarised here. Results shown have been obtained by stimulation of CD8+ cells with high density beads. As different human serum lots may highly affect the immunogenicity results, only assays in which one and the same serum lot was used, were evaluated together.

[2] = test system: monocyte-depleted PBMCs of one healthy donor; experiment: In vitro priming with peptide-pulsed autologous DCs, intracellular IFNγ staining (ICS) read-out; format: cell-based, human
Protocol: FIGS. 7a and 7b depict the in vitro immunogenicity of TGFBI-004 as detected by ICS after five stimulation cycles.
Cells were primed with TGFBI-004-loaded autologous DCs and restimulated repeatedly with autologous PBMCs plus TGFBI-004. For the read-out cells were incubated with relevant TGFBI-004 (Well 1, 2, 3 and 4) and irrelevant (Neg. Control) peptide, respectively. Additionally to the intracellular IFNγ staining, cells were also stained with CD4-FITC and OCD8-PerCP antibodies. The analysis was performed on a four-color FACSCalibur cytometer (BD Biosciences, Germany).
(§1) Priming and expansion of specific human CD4+ and CD8+ cells were assayed in vitro by priming of monocyte-depleted PBMCs with autologous DCs and restimulation with autologous PBMCs. […] As a read-out system, IFNγ production upon short term restimulation was assessed by ELISPOT and flow cytometry. T cells were analysed after […] stimulations by ELISPOT and intracellular IFNγ staining plus CD4-FITC and CD8-PerCP to determine the percentage of IFNγ-producing cells in specific T-cell subpopulations. In this experiment, cells stimulated with TGFBI-004 peptide from different wells were pooled, incubated with irrelevant peptide for the read-out and performed as negative controls. […]
(§2) To generate CD4+ T cells, 3 Million PBMCs/PBLs were stimulated with 2×10^5 autologuous DCs. […] After being washed with DC medium, cell number was determined. […]

[3] = test system: monocyte-depleted PBMCs of one healthy donor; experiment: In vitro priming with peptide-pulsed autologous DCs, IFNγ ELISPOT read-out; format: cell-based, human
Protocol: FIG. 6 depicts the in vitro immunogenicity of TGFBI-004 as detected by IFNγ ELISPOT after five stimulation cycles.
Cells were primed and restimulated repeatedly with TGFBI-004 and then incubated with relevant TGFBI-004 (Well 1, 2, 3 and 4) and irrelevant (Neg. control) peptide, respectively. The analysis after IFNγ ELISPOT was performed on an ELISPOT Reader (CTL, Cleveland, USA). PHA-Ionomycin served as positive control. Numbers indicate the count of positive spots.
as §1, §2

[4] = Particle size/shape measurement and analytical HPLC of reconstituted IMA910 suspension; format: physicochemical; details: analytical HPLC of suspension
Protocol: Particle size distribution and particle shape measurement of the particles obtained after reconstitution have been performed by capturing direct images of each individual particle in the range of 0.25 to 100 μm followed by image analysis.
Furthermore, analytical HPLC was performed for a closer characterization of the obtained suspension.
IMA910 is dissolved in 700 μL sodium hydrogen carbonate (4.2%).

Substance	Immunogenicity detected [1]	T-cell lines with specific IFNγ producing CD4+ and/or CD8+ cells via ICS [2]	induction of CD4+ and CD8+ T cell responses ([3]; one donor tested, autologous system)	T-cell lines with T-cell responses detected via ELISPOT ([3]; one healthy donor, IFNγ ELISPOT)	amount of peptide found in the particles [4]	Positive donors/donors tested [1]	Positive donors/donors tested (%) [1]	Positive wells/wells tested [1]	Positive wells/wells tested (%) [1]
SLWAGVVVL (listed as Homo sapiens) [CHI-001]	yes	–	–	–	–	–	–	–	–
TPPIDAHTRNLLRNH (listed as Homo sapiens) [TGFBI-004]	–	3 out of 4	able to elicit CD4+ and CD8+ T cell responses	2 out of 4	–	–	–	–	–
ALTTLMHQL (listed as Homo sapiens) [PTP-001]	yes	–	–	–	–	–	–	–	–
CCN-001: 9 amino acid peptide in vaccine IMA910, supplied as chloride salt (LLGATCMFV; also: chloride salt) [reference compound]	yes	–	–	–	low amounts	5/5	(100%)	42/54	(78%)
KLMDLDVEQL [PCN-001]	yes	–	–	–	–	3/4	(75%)	4/42	(10%)
KIFDEILVNA [TOP-001]	yes	–	–	–	low amounts	2/5	(40%)	7/72	(10%)
KLTDIQIEL (listed as Homo sapiens) [JAK-001]	yes	–	–	–	–	–	–	–	–
ALSNLEVTL [Peptide C20-001]	yes	–	–	–	–	1/5	(20%)	1/60	(2%)
